# According to ChEMBL document CHEMBL5154804, “Species-Selective Targeting of Fungal Hsp90: Design, Synthesis, and Evaluation of Novel 4,5-Diarylisoxazole Derivatives for the Combination Treatment of Azole-Resistant Candidiasis” (J Med Chem, 2022):
# What was measured:
# Type in all cases: functional
# Candida albicans [1] = experiment: Synergistic antifungal activity against fluconazole-resistant Candida albicans 100 assessed as inhibition of fungal growth in presence of fluconazole by checker board microdilution assay
# Candida albicans [2] = experiment: Synergistic antifungal activity against fluconazole-resistant Candida albicans 311 assessed as inhibition of fungal growth in presence of fluconazole by checker board microdilution assay; note: test concentration or dose not given here
# Candida albicans [3] = experiment: Synergistic antifungal activity against fluconazole-resistant Candida albicans 904 assessed as inhibition of fungal growth in presence of fluconazole by checker board microdilution assay; note: test concentration or dose not given here
# Candida albicans [4] = experiment: Synergistic antifungal activity against fluconazole-resistant Candida albicans 632 assessed as inhibition of fungal growth in presence of fluconazole by checker board microdilution assay
# Candida albicans [5] = experiment: Synergistic antifungal activity against fluconazole-resistant Candida albicans 901 assessed as inhibition of fungal growth in presence of fluconazole by checker board microdilution assay
# Candida albicans [6] = experiment: Synergistic antifungal activity against fluconazole-resistant Candida albicans 103 assessed as inhibition of fungal growth in presence of fluconazole by checker board microdilution assay
Compound,MIC80 (Candida albicans [1]),MIC80 (Candida albicans [2]),MIC80 (Candida albicans [3]),MIC80 (Candida albicans [4]),MIC80 (Candida albicans [5]),MIC80 (Candida albicans [6])
Cc1ccc(-c2cc(-c3onc(C(=O)NC4COC4)c3-c3ccc(CN4CCOCC4)cc3)c(O)cc2O)cc1,> 64 µg/mL,> 64 µg/mL,> 64 µg/mL,> 64 µg/mL,> 64 µg/mL,> 64 µg/mL
CCCNC(=O)c1noc(-c2cc(-c3ccc(C)cc3)c(O)cc2O)c1-c1ccc(CN2CCOCC2)cc1,16 µg/mL,64 µg/mL,4 µg/mL,32 µg/mL,4 µg/mL,32 µg/mL
CCNC(=O)c1noc(-c2cc(-c3ccc(C)cc3)c(O)cc2O)c1-c1ccc(CN2CCC(N3CCOCC3)CC2)cc1,> 64 µg/mL,> 64 µg/mL,> 64 µg/mL,> 64 µg/mL,> 64 µg/mL,> 64 µg/mL
CCNC(=O)c1noc(-c2cc(-c3cccc(C(C)(C)C)c3)c(O)cc2O)c1-c1ccc(CN2CCOCC2)cc1,> 64 µg/mL,> 64 µg/mL,> 64 µg/mL,> 64 µg/mL,> 64 µg/mL,> 64 µg/mL
CCNC(=O)c1noc(-c2cc(-c3ccc(C(F)(F)F)cc3)c(O)cc2O)c1-c1ccc(CN2CCOCC2)cc1,> 64 µg/mL,> 64 µg/mL,> 64 µg/mL,> 64 µg/mL,> 64 µg/mL,> 64 µg/mL
CCNC(=O)c1noc(-c2cc(-c3ccccc3C(C)C)c(O)cc2O)c1-c1ccc(CN2CCOCC2)cc1,> 64 µg/mL,> 64 µg/mL,> 64 µg/mL,> 64 µg/mL,> 64 µg/mL,> 64 µg/mL
Cc1ccc(-c2cc(-c3onc(C(=O)N4CCC4)c3-c3ccc(CN4CCOCC4)cc3)c(O)cc2O)cc1,8 µg/mL,> 64 µg/mL,16 µg/mL,> 64 µg/mL,16 µg/mL,> 64 µg/mL
CCNC(=O)c1noc(-c2cc(-c3cccc(F)c3)c(O)cc2O)c1-c1ccc(CN2CCOCC2)cc1,8 µg/mL,4 µg/mL,1 µg/mL,2 µg/mL,2 µg/mL,16 µg/mL
Cc1ccc(-c2cc(-c3onc(C(=O)NC4CCC4)c3-c3ccc(CN4CCCCC4)cc3)c(O)cc2O)cc1,2 µg/mL,2 µg/mL,2 µg/mL,1 µg/mL,4 µg/mL,4 µg/mL
CCNC(=O)c1noc(-c2cc(-c3ccc(C)cc3)c(O)cc2O)c1-c1ccc(CN2CCNC(=O)C2)cc1,> 64 µg/mL,> 64 µg/mL,> 64 µg/mL,> 64 µg/mL,> 64 µg/mL,> 64 µg/mL
Cc1ccc(-c2cc(-c3onc(C(=O)NC(C)C)c3-c3ccc(CN4CCOCC4)cc3)c(O)cc2O)cc1,16 µg/mL,64 µg/mL,4 µg/mL,8 µg/mL,8 µg/mL,64 µg/mL
CCNC(=O)c1noc(-c2cc(-c3cccc(C(F)(F)F)c3)c(O)cc2O)c1-c1ccc(CN2CCOCC2)cc1,> 64 µg/mL,> 64 µg/mL,> 64 µg/mL,> 64 µg/mL,> 64 µg/mL,> 64 µg/mL
CCNC(=O)c1noc(-c2cc(-c3ccc(OC)cc3)c(O)cc2O)c1-c1ccc(CN2CCOCC2)cc1,8 µg/mL,16 µg/mL,4 µg/mL,16 µg/mL,8 µg/mL,8 µg/mL
Cc1ccc(-c2cc(-c3onc(C(=O)N4CCCCC4)c3-c3ccc(CN4CCOCC4)cc3)c(O)cc2O)cc1,> 64 µg/mL,> 64 µg/mL,> 64 µg/mL,> 64 µg/mL,> 64 µg/mL,> 64 µg/mL
CCNC(=O)c1noc(-c2cc(-c3ccc(C)cc3)c(O)cc2O)c1-c1ccc(CN2CC(C)CC(C)C2)cc1 (centres undefined),4 µg/mL,2 µg/mL,1 µg/mL,2 µg/mL,0.5 µg/mL,16 µg/mL
Cc1ccc(-c2cc(-c3onc(C(=O)NC4COC4)c3-c3ccc(CN4CCCCC4)cc3)c(O)cc2O)cc1,> 64 µg/mL,> 64 µg/mL,> 64 µg/mL,> 64 µg/mL,32 µg/mL,> 64 µg/mL
CCNC(=O)c1noc(-c2cc(-c3ccc(C)cc3)c(O)cc2O)c1-c1ccc(CN2CCS(=O)(=O)CC2)cc1,> 64 µg/mL,16 µg/mL,32 µg/mL,> 64 µg/mL,64 µg/mL,> 64 µg/mL
CCN(CC)C(=O)c1noc(-c2cc(-c3ccc(C)cc3)c(O)cc2O)c1-c1ccc(CN2CCOCC2)cc1,8 µg/mL,8 µg/mL,8 µg/mL,8 µg/mL,8 µg/mL,16 µg/mL
Cc1ccc(-c2cc(-c3onc(C(=O)N(C)C)c3-c3ccc(CN4CCCCC4)cc3)c(O)cc2O)cc1,8 µg/mL,16 µg/mL,8 µg/mL,8 µg/mL,16 µg/mL,16 µg/mL
CCNC(=O)c1noc(-c2cc(-c3ccc(C)cc3)c(O)cc2O)c1-c1ccc(CN2CCN(C)CC2)cc1,> 64 µg/mL,> 64 µg/mL,> 64 µg/mL,> 64 µg/mL,64 µg/mL,> 64 µg/mL
Cc1ccc(-c2cc(-c3onc(C(=O)NC4CCC4)c3-c3ccc(CN4CCOCC4)cc3)c(O)cc2O)cc1,16 µg/mL,> 64 µg/mL,4 µg/mL,64 µg/mL,8 µg/mL,32 µg/mL
CCNC(=O)c1noc(-c2cc(-c3ccc(C)cc3)c(O)cc2O)c1-c1ccc(CNC2CCOCC2)cc1,> 64 µg/mL,> 64 µg/mL,> 64 µg/mL,> 64 µg/mL,> 64 µg/mL,> 64 µg/mL
CCNC(=O)c1noc(-c2cc(-c3ccc(C(C)(C)C)cc3)c(O)cc2O)c1-c1ccc(CN2CCOCC2)cc1,> 64 µg/mL,> 64 µg/mL,> 64 µg/mL,> 64 µg/mL,> 64 µg/mL,> 64 µg/mL
CCNC(=O)c1noc(-c2cc(-c3cccc(OC(F)(F)F)c3)c(O)cc2O)c1-c1ccc(CN2CCOCC2)cc1,> 64 µg/mL,> 64 µg/mL,> 64 µg/mL,> 64 µg/mL,> 64 µg/mL,> 64 µg/mL
Cc1ccc(-c2cc(-c3onc(C(=O)N4CCC4)c3-c3ccc(CN4CCCCC4)cc3)c(O)cc2O)cc1,> 64 µg/mL,16 µg/mL,> 64 µg/mL,> 64 µg/mL,16 µg/mL,> 64 µg/mL
Cc1ccc(-c2cc(-c3onc(C(=O)NC4CC4)c3-c3ccc(CN4CCOCC4)cc3)c(O)cc2O)cc1,4 µg/mL,> 64 µg/mL,4 µg/mL,32 µg/mL,8 µg/mL,16 µg/mL
CCNC(=O)c1noc(-c2cc(-c3cccc(C)c3)c(O)cc2O)c1-c1ccc(CN2CCOCC2)cc1,1 µg/mL,0.5 µg/mL,0.25 µg/mL,0.25 µg/mL,0.5 µg/mL,1 µg/mL
Cc1ccc(-c2cc(-c3onc(C(=O)N(C)C)c3-c3ccc(CN4CCOCC4)cc3)c(O)cc2O)cc1,32 µg/mL,32 µg/mL,8 µg/mL,8 µg/mL,4 µg/mL,16 µg/mL
CCNC(=O)c1noc(-c2cc(-c3ccccc3F)c(O)cc2O)c1-c1ccc(CN2CCOCC2)cc1,> 64 µg/mL,> 64 µg/mL,> 64 µg/mL,> 64 µg/mL,> 64 µg/mL,> 64 µg/mL
